Active and inactive are the calls of the source. The calls are words filed in the database; no cut-off is given here.
Experiments:
Tyrosinase [1] = target: T1, Tyrosinase (Agaricus bisporus, UniProt O42713)
T1 sequence (O42713 whole entry): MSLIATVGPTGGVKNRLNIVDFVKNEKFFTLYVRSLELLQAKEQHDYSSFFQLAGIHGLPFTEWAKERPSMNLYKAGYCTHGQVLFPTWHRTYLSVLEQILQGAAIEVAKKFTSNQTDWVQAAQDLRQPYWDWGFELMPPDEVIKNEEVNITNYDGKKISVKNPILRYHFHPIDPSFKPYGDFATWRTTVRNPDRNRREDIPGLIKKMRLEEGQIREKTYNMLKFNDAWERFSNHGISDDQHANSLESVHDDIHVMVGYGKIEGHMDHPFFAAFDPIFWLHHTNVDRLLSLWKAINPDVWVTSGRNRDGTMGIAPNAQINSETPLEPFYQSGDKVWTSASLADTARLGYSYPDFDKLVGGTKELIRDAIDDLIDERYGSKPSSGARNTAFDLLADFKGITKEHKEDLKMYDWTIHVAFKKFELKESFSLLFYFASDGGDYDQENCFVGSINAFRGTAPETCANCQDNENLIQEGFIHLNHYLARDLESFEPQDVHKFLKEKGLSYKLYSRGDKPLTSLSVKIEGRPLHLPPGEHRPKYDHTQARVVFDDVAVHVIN
Description: Inhibition of mushroom tyrosinase using as L-DOPA substrate after 2 mins by spectrophotometric analysis

Tyrosinase [2] = target: T1, Tyrosinase; remark: listed apart in the source
[3] = target: T2, Tyrosinase (Agaricus bisporus) (UniProt O42713); experiment: Potency index, ratio IC50 for hydroquinone to compound against mushroom tyrosinase using as L-tyrosine substrate after 10 mins by spectrophotometric analysis
T2 sequence (whole entry): T1 sequence (O42713 whole entry)

[4] = target: T2, Tyrosinase (Agaricus bisporus); experiment: Inhibition of mushroom tyrosinase assessed as lag time for L-tyrosine oxidation at 5.51 uM by spectrophotometric analysis
[5] = target: T2, Tyrosinase (Agaricus bisporus); experiment: Inhibition of mushroom tyrosinase assessed as reduction in reaction rate of L-tyrosine oxidation by spectrophotometric analysis
[6] = target: T2, Tyrosinase (Agaricus bisporus); experiment: Reversible inhibition of mushroom tyrosinase using L-tyrosine substrate by spectrophotometric analysis
[7] = target: T2, Tyrosinase (Agaricus bisporus); experiment: Reversible inhibition of mushroom tyrosinase using L-DOPA substrate by spectrophotometric analysis
[8] = target: T2, Tyrosinase (Agaricus bisporus); experiment: Potency index, ratio IC50 for hydroquinone to compound against mushroom tyrosinase using as […] substrate after 10 mins by spectrophotometric analysis
[9] = target: T2, Tyrosinase (Agaricus bisporus); experiment: Competitive inhibition of mushroom tyrosinase using L-tyrosine substrate by Lineweaver-Burk double reciprocal plot analysis
[10] = target: T2, Tyrosinase (Agaricus bisporus); experiment: Noncompetitive inhibition of mushroom tyrosinase using […] substrate by Lineweaver-Burk double reciprocal plot analysis
[11] = target: T2, Tyrosinase (Agaricus bisporus); experiment: […] mixed-I type inhibition of mushroom tyrosinase using L-tyrosine substrate by Lineweaver-Burk double reciprocal plot analysis
Tyrosinase [12] = target: T1, Tyrosinase; experiment: Inhibition of mushroom tyrosinase assessed as inhibition constant for compound-free enzyme using as L-tyrosine substrate by spectrophotometric analysis
Tyrosinase [13] = target: T1, Tyrosinase; experiment: Inhibition of mushroom tyrosinase assessed as inhibition constant for compound-enzyme-substrate complex using as L-tyrosine substrate by spectrophotometric analysis
Tyrosinase [14] = target: T1, Tyrosinase; experiment: Inhibition of mushroom tyrosinase assessed as inhibition constant for compound-free enzyme using as […] substrate by spectrophotometric analysis
Tyrosinase [15] = target: T1, Tyrosinase; experiment: Inhibition of mushroom tyrosinase assessed as inhibition constant for compound-enzyme-substrate complex using as […] substrate by spectrophotometric analysis
[16] = target: T2, Tyrosinase (Agaricus bisporus); experiment: Potency index, ratio IC50 for kojic acid to compound against mushroom tyrosinase using as L-tyrosine substrate after 10 mins by spectrophotometric analysis
[17] = Metal chelating activity of the compound assessed as formation of copper complex at 84.66 uM after 1 min by UV-vis spectroscopy; assay type: functional
[18] = target: T2, Tyrosinase (Agaricus bisporus); experiment: Potency index, ratio Ki for kojic acid to compound against mushroom tyrosinase assessed as inhibition constant for compound-free enzyme using as L-tyrosine substrate by spectrophotometric analysis
[19] = target: T2, Tyrosinase (Agaricus bisporus); experiment: Potency index, ratio Ki for kojic acid to compound against mushroom tyrosinase diphenolase activity
[20] = target: T2, Tyrosinase (Agaricus bisporus); experiment: Potency index, ratio IC50 for (Z,Z)-5-trideca-4,7-dienyl)-resorcinol to compound against mushroom tyrosinase assessed as inhibition constant for compound-free enzyme using as L-tyrosine substrate by spectrophotometric analysis
[21] = target: T2, Tyrosinase (Agaricus bisporus); experiment: Potency index, ratio IC50 for ascorbic acid to compound against mushroom tyrosinase assessed as inhibition constant for compound-free enzyme using as L-tyrosine substrate by spectrophotometric analysis
[22] = target: T2, Tyrosinase (Agaricus bisporus); experiment: Potency index, ratio IC50 for arbutin to compound against mushroom tyrosinase assessed as inhibition constant for compound-free enzyme using as L-tyrosine substrate by spectrophotometric analysis
Tyrosinase [23] = target: T1, Tyrosinase; remark: listed apart in the source
Description: Inhibition of mushroom tyrosinase using as L-tyrosine substrate after 10 mins by spectrophotometric analysis

CCCCC/C=C\C/C=C\CCCc1cc(O)cc(O)c1
IC50 (Tyrosinase [1]): 51.9 µM | IC50 (Tyrosinase [2]): 1.7 µM

CC1(C)C=Cc2c(cc3c(c2O)C(=O)CC(c2ccc(O)cc2O)O3)O1 (centres undefined) [DALENIN]
Ratio IC50 [3]: 52 | TIME [4]: 0.167 h | inhibition [5]: Active | inhibition [6]: Active | inhibition [7]: Active | Ratio IC50 [8]: 59 | inhibition [9]: Active | inhibition [10]: Active | inhibition [11]: Active | Ki (Tyrosinase [12]): 1.98 µM | Ki (Tyrosinase [13]): 7.6 µM | Ki (Tyrosinase [14]): 160 µM | Ki (Tyrosinase [15]): 160 µM | Ratio IC50 [16]: 495 | Activity [17]: Active | Ratio Ki [18]: 15 | Ratio Ki [19]: 8 | Ratio IC50 [20]: 3 | Ratio IC50 [21]: 7 | Ratio IC50 [22]: 285 | IC50 (Tyrosinase [23]): 0.26 µM | IC50 (Tyrosinase [1]): 18.6 µM

Oc1ccc(O)cc1 [HYDROQUINONE]
IC50 (Tyrosinase [23]): 13.5 µM | IC50 (Tyrosinase [1]): 1090 µM

O=S([O-])O.[Na+] [SODIUM BISULFITE]
IC50 (Tyrosinase [2]): 210 µM

O=C1CC(c2ccc(O)cc2O)Oc2cc(O)cc(O)c21 (centres undefined) [STEPPOGENIN]
IC50 (Tyrosinase [23]): 1.3 µM | IC50 (Tyrosinase [1]): 26.5 µM

From ChEMBL document CHEMBL2146462, “Tyrosinase inhibitory activity of a 6-isoprenoid-substituted flavanone isolated from Dalea elegans” (Bioorg Med Chem, 2011)
